Where “and” joins values, the source holds several entries; their conditions need not be identical. Identical values can stand only once. Like-named read-outs stand apart in the source and are kept apart here.
Legend:
SJSA-1 xenograft = test: SJSA-1 Bone Osteosarcoma subcutaneous xenograft model; conditions: IP, SBT-100 5.0 mg/kg BIDx14 and/or Doxorubicin 7.0 mg/kg days 1, 8, 14
[1] = system: Zika/DAKAR D41525 Senegal strain
EBOv (Makon) [2] = conditions: HFF; EBOV (Makona); 48 hours
U87MG cells = test: MTT proliferation assay, U87MG; type: cell-based, human; conditions: for % Inhibition (growth): U87mg cells treated for 72 hr.
EBOv (Makon) [3] = conditions: Hela; EBOV (Makona); 48 hours
BT474 xenograft = test: BT474 human breast tumor xenograft in CB.17 SCID mice; type: in vivo
PANC-1 cells = test: Internalization of sdAb, anti-His staining, PANC-1; type: cell-based; conditions: 18 hours after sdAb addition
Description: The next day, the chambers were rinsed with fresh media and STAT3 VHH13 (SEQ ID NO:3) sdAb (diluted 1:10 in media) or TNF-α VHH66 (SEQ ID NO:45) sdAb was added to the chamber. An anti-HIV-1 Reverse Transcriptase (RT) sdAb was used as a negative control.
The slides were incubated for 18 hours after sdAb addition. The chambers were briefly rinsed with media and fixed in ice-cold methanol for 5-10 min. The chambers were then dried and stained with a fluorescent anti-His tag antibody (1:200) (Novus Biologicals, Littleton, Colo.) for 45 min at room temperature. The slides were rinsed in PBS for 5 minutes and mounted.

SIE-luc2P/HEK293 cells = test: BCA protein concentration of reporter cells; type: cell-based; conditions: highest concentration (55.8 μg/mL)
[4] = SB-01 1 mg/kg ip tid × 14 first day 2 doses

anti-STAT3 VHH13: anti-STAT3 single-domain antibody, SEQ ID NO:3; bacterially produced, referred to as SBT-100
Mean Abs (tumor measurement) (SJSA-1 xenograft; study day 13 post implant): 115.14 mm^3 | Median Abs (tumor measurement) (SJSA-1 xenograft; study day 13 post implant): 85.60 mm^3 | Tumor Measurements, single animals (SJSA-1 xenograft; study day 13 post implant): 106.64 mm^3 and 28.26 mm^3 and 0.00 mm^3 and 126.45 mm^3 and 38.25 mm^3 and 420.78 mm^3 and 85.60 mm^3 | % Inh Mean (SJSA-1 xenograft; study day 16 post implant): 12.69% | % Inh Med (SJSA-1 xenograft; study day 16 post implant): 14.60% | % T/C (SJSA-1 xenograft; study day 16 post implant): 71.23% | Mean Abs (tumor measurement) (SJSA-1 xenograft; study day 16 post implant): 151.57 mm^3 | Median Abs (tumor measurement) (SJSA-1 xenograft; study day 16 post implant): 139.83 mm^3 | Tumor Measurements, single animals (SJSA-1 xenograft; study day 16 post implant): 139.83 mm^3 and 36.05 mm^3 and 11.02 mm^3 and 200.95 mm^3 and 187.82 mm^3 and 358.90 mm^3 and 126.46 mm^3 | % Inh Mean (SJSA-1 xenograft; study day 20 post implant): 18.11% | % Inh Med (SJSA-1 xenograft; study day 20 post implant): 24.54% | % T/C (SJSA-1 xenograft; study day 20 post implant): 73.26% | Mean Abs (tumor measurement) (SJSA-1 xenograft; study day 20 post implant): 252.90 mm^3 | Median Abs (tumor measurement) (SJSA-1 xenograft; study day 20 post implant): 191.62 mm^3 | Tumor Measurements, single animals (SJSA-1 xenograft; study day 20 post implant): 191.62 mm^3 and 70.70 mm^3 and 59.97 mm^3 and 616.53 mm^3 and 180.38 mm^3 and 450.45 mm^3 and 200.68 mm^3 | % Inh Mean (SJSA-1 xenograft; study day 21 post implant): 16.23% | % Inh Med (SJSA-1 xenograft; study day 21 post implant): 35.42% | % T/C (SJSA-1 xenograft; study day 21 post implant): 76.22% | Mean Abs (tumor measurement) (SJSA-1 xenograft; study day 21 post implant): 334.52 mm^3 | Median Abs (tumor measurement) (SJSA-1 xenograft; study day 21 post implant): 198.86 mm^3 | Tumor Measurements, single animals (SJSA-1 xenograft; study day 21 post implant): 271.05 mm^3 and 115.97 mm^3 and 96.53 mm^3 and 901.18 mm^3 and 155.51 mm^3 and 602.51 mm^3 and 198.86 mm^3 | % Inh Mean (SJSA-1 xenograft; study day 23 post implant): 8.48% | % Inh Med (SJSA-1 xenograft; study day 23 post implant): 33.12% | % T/C (SJSA-1 xenograft; study day 23 post implant): 79.47% | Mean Abs (tumor measurement) (SJSA-1 xenograft; study day 23 post implant): 477.43 mm^3 | Median Abs (tumor measurement) (SJSA-1 xenograft; study day 23 post implant): 308.49 mm^3 | Tumor Measurements, single animals (SJSA-1 xenograft; study day 23 post implant): 308.49 mm^3 and 201.00 mm^3 and 185.39 mm^3 and 1,359.67 mm^3 and 197.83 mm^3 and 756.79 mm^3 and 332.80 mm^3 | % Inh Mean (SJSA-1 xenograft; study day 27 post implant): 25.23% | % Inh Med (SJSA-1 xenograft; study day 27 post implant): 37.90% | % T/C (SJSA-1 xenograft; study day 27 post implant): 69.91% | Mean Abs (tumor measurement) (SJSA-1 xenograft; study day 27 post implant): 1,055.68 mm^3 | Median Abs (tumor measurement) (SJSA-1 xenograft; study day 27 post implant): 707.34 mm^3 | Tumor Measurements, single animals (SJSA-1 xenograft; study day 27 post implant): 707.34 mm^3 and 474.71 mm^3 and 380.72 mm^3 and 2,500.29 mm^3 and 351.21 mm^3 and 1,699.89 mm^3 and 1,275.63 mm^3 | EC50 [1]: 11.04 ug/m | EC90 [1]: 48.11 µg/mL | EC50 (EBOv (Makon) [2]): 38.36 ug/m | EC90 (EBOv (Makon) [2]): 66.43 µg/mL | % Inhibition (growth) (U87MG cells; Dose 50 μg/ml): 18% | % Inhibition (growth) (U87MG cells; Dose 100 μg/ml): 51% | % Inhibition (growth) (U87MG cells; Dose 200 μg/ml): 62% | IC50 (U87MG cells; U87mg, 72 hr): IC50 = 65 μg/ml | % Inhibition (U87MG cells; U87mg, SBT-100 50 μg/ml, 72 hr): 18% | % Inhibition (U87MG cells; U87mg, SBT-100 100 μg/ml, 72 hr): 51% | % Inhibition (U87MG cells; U87mg, SBT-100 200 μg/ml, 72 hr): 62% | EC50 (EBOv (Makon) [3]): 19.02 ug/m | EC90 (EBOv (Makon) [3]): 58.72 µg/mL | effect on growth of BT474 tumors compared to control (BT474 xenograft; 1 mg/kg ip tid × 14): did not reduce the growth of BT474 tumors in vivo | % TGD (BT474 xenograft; [4]): 22% | MTV (n) Day 60 (BT474 xenograft; [4]): 550 | Median TTE (BT474 xenograft; [4]): 60.0 | staining with fluorescent anti-His tag antibody (PANC-1 cells): positive cytoplasmic staining | decrease in protein (SIE-luc2P/HEK293 cells): approximately 2 fold

Source: patent US11370847B2, “Single domain antibodies directed against intracellular antigens” (Singh Biotechnology, LLC, priority 2014, dated 2022)
